Measurements from US20040229931A1, “1-Aryl-3-(indol-5-yl) prop-2-en-1-ones, compositions containing them and use” (Aventis Pharma S. A., priority 2003, published 2004).

How the values were obtained:
[1] = Ames test (mutagenicity)
From the text: (§1) Another problem posed consisted in obtaining products having all the advantages described above without the disadvantages frequently encountered during the study of products of the chalcone family. These disadvantages are (i) the problems of cardiac toxicity, which can be evaluated by measuring the inhibition of Herg receptors, (ii) finally, and to a lesser degree, the problems of mutagenicity, which can be evaluated in particular in the Ames test.

[2] = tested on: HeLa cells; assay: Inhibition of proliferation of HeLa tumor cells ([14C]thymidine incorporation); format: cell-based; conditions: Homo sapiens, 48 hours, read-out: Inhibition of cell proliferation IC50, HeLa
Experimental: The proliferation of HeLa or HDMEC cells is evaluated by measuring the incorporation of [^14C]thymidine in the following manner. The HeLa cells (epithelial tumor cells of human origin) are cultured in a DMEM medium (Gibco) which contains 10% of foetal calf serum and antibiotics (1% penicillin, 1% streptomycin). To carry out the proliferation test, the cells are inoculated into 96-well Cytostar microplates (Amersham), at the rate of 5000 cells per well. [^14C]Thymidine (0.1 μCi/well) and the products to be evaluated are then added. Variable concentrations of products of up to 10 μM are used; the DMSO (solvent used to solubilize the products) should not exceed 0.5% in the medium. 48 hours after incubation at 37° C., the radioactivity incorporated into the cells is measured by counting the plate in a TR1-LUX counter (Wallac). The IC50 is defined as the concentration of compound which reduces by 50% the radioactivity compared with an untreated control.

[3] = tested on: HDMEC cells; assay: Inhibition of proliferation of endothelial cells HDMEC ([14C]thymidine incorporation); format: cell-based; conditions: Homo sapiens, Endothelial cell, 48 hours
Experimental: The evaluation of the detachment of the endothelial cells in vitro is determined in the following manner. HDMEC cells (Human Dermal Microvascular Endothelial Cells, Promocell, c-122102) are cultured in an ECGM-MV medium which contains 5% foetal calf serum, growth factors (EGF 10 ng/ml, hydrocortisone 1 μg/ml, 0.4% growth supplement with heparin) and antibiotics (amphoteracin 50 ng/ml, gentamycin 50 μg/ml). For the detachment test, the HDMECs are inoculated at 5 000 cells in clear-bottomed 96-well plates (Costar) precoated with fibronectin (10 μg/ml) or vitronectin (1 μg/ml) or gelatin. Twenty-four hours later, the culture medium is replaced with ECGM-MV 0.1% BSA medium containing the products indicated. […] The fluorescence of the cells which remain attached to the substratum of the well is counted using a fluorimeter, Spectrafluor Plus (Tecan excitation 485 nm, and emission 535 nm). The data are the mean of six different samples and are expressed as the percentage of the control (untreated cells).
The proliferation of HeLa or HDMEC cells is evaluated by measuring the incorporation of [^14C]thymidine in the following manner. […] [^14C]Thymidine (0.1 μCi/well) and the products to be evaluated are then added. […] 48 hours after incubation at 37° C., the radioactivity incorporated into the cells is measured by counting the plate in a TR1-LUX counter (Wallac). […]

[4] = target: T1, Tubulin (Sus scrofa, UniProt P02550+P02554); assay: Inhibition of polymerization of tubulin (turbidimetry); format: biochemical; conditions: pig brain tubulin 10 μM, turbidity at 350 nm, 37° C.
T1 construct: Tubulin is purified from pig brains according to published methods; from tissue; host or cells: pig brain
Experimental: Tubulin is purified from pig brains according to published methods (Shelanski et al., Proc. Natl. Acad. Sci. USA, 70, 765-768. Weingarten et al., 1975, Proc. Natl. Acad. Sci. USA, 72, 1858-1862). Briefly, the brains are ground and centrifuged in an extraction buffer. The tubulin contained in the supernatant of the extract undergoes two successive cycles of polymerization at 37° C. and depolymerization at 4° C., before being separated from the MAPs (Microtubule Associated Proteins) by chromatography on a phosphocellulose P11 column (Whatman). The tubulin thus isolated is more than 95% pure. It is stored in a buffer called RB/2 30% glycerol whose composition is 50 mM MES-NaOH [2-(N-morpholino)ethanesulfonic acid], pH 6.8; 0.25 mM MgCl2; 0.5 mM EGTA; 30% glycerol (v/v), 0.2 mM GTP (guanosine-5′-triphosphate).
The polymerization of tubulin to microtubules is monitored by turbidimetry as follows: the tubulin is adjusted to a concentration of 10 μM (1 mg/ml) in RB/2 30% glycerol buffer to which 1 mM GTP and 6 mM MgCl2 are added. The polymerization is triggered by an increase in temperature from 6° C. to 37° C. in a cuvette having an optical path length of 1 cm, placed in a UVIKON 931 spectrophotometer (Kontron) equipped with a thermostated cuvette holder. The increase in the turbidity of the solution is monitored at 350 nm.
The compounds of this invention are dissolved at 10 mM in DMSO and added at variable concentrations (0.5 to 10 μM) to the tubulin solution before polymerization. The IC50 is defined as the concentration of compound which inhibits the rate of polymerization by 50%.

[5] = tested on: C51 murine adenocarcinoma (colon tumor); assay: Evaluation of tumor necrosis in vivo; conditions: 35 mg/kg, intravenous injection, 24 hours after treatment, female BALB/c mice; listed as EXAMPLE 2
From the text: Mice are bred either by IFFA-CREDO (Domaine des Oncins, 69210 L'Arbresle, France) from a breed obtained by Jackson Laboratories, Bar Harbor, Me., USA, or alternatively by Charles River France (76410 St Aubin les Elbeuf, France) from a breed obtained by Charles River, USA. The mice initially weigh more than 18 g at the start of the trial. They have free access to food (UAR reference 113, Villemoisson, 91160 Epinay sur Orge, France) and to water.
The tumors used are currently transplanted in our laboratories. All these tumors are at the Frederick Cancer Research Facility (Frederick, Md., USA) at the repository of frozen tumors of the National Cancer Institute (NCI), or at the American Type Culture Collection (ATCC, Rockville, Md., USA).
The techniques for tumor transplantation, chemotherapy and data analysis have been presented in detail (Corbett et al., 1982a; Corbett et al., 1982b).
To summarize, the animals necessary for one experiment are assembled and bilaterally implanted on day 0 (zero).
The growth of solid tumors develops freely up to the desired size. […]
The samples are then treated, cut into sections, stained with haematoxylin, eosin and saffron yellow, and are then examined […]. The tumor necrosis (necrosis±degeneration) is evaluated microscopically using a scale of extent from 0 to 5: […]
The necrosis due to the experiment was evaluated on an untreated control. […]

[6] = target: Herg receptors (Homo sapiens, UniProt Q12809); assay: Inhibition of Herg receptors (cardiac toxicity)
From the text: as §1

T1 sequence (P02550 whole entry): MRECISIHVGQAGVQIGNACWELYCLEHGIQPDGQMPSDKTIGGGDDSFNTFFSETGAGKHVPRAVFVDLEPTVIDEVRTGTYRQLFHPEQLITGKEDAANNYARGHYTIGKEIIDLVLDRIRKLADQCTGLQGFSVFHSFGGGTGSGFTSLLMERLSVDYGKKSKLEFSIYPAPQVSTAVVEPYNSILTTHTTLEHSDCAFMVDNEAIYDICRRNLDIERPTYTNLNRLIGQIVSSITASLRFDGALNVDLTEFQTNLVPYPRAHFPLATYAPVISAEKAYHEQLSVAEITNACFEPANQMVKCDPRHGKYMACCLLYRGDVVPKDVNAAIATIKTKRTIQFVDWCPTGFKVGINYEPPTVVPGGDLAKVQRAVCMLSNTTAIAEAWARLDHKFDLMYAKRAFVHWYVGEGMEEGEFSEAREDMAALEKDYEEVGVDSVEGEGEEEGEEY
T1 sequence (P02554 whole entry): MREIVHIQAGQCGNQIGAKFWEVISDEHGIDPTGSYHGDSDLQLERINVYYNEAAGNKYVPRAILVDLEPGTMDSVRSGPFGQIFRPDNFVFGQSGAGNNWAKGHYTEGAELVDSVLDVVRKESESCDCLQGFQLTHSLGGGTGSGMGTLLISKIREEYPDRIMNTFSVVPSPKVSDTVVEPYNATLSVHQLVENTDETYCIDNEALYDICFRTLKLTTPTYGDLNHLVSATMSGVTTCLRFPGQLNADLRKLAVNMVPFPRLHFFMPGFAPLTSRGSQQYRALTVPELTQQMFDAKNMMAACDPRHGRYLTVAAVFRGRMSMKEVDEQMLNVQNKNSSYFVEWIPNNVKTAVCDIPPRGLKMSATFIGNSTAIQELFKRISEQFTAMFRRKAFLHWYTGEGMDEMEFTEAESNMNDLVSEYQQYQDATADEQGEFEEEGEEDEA
Sequence of Herg receptors (Q12809 whole entry): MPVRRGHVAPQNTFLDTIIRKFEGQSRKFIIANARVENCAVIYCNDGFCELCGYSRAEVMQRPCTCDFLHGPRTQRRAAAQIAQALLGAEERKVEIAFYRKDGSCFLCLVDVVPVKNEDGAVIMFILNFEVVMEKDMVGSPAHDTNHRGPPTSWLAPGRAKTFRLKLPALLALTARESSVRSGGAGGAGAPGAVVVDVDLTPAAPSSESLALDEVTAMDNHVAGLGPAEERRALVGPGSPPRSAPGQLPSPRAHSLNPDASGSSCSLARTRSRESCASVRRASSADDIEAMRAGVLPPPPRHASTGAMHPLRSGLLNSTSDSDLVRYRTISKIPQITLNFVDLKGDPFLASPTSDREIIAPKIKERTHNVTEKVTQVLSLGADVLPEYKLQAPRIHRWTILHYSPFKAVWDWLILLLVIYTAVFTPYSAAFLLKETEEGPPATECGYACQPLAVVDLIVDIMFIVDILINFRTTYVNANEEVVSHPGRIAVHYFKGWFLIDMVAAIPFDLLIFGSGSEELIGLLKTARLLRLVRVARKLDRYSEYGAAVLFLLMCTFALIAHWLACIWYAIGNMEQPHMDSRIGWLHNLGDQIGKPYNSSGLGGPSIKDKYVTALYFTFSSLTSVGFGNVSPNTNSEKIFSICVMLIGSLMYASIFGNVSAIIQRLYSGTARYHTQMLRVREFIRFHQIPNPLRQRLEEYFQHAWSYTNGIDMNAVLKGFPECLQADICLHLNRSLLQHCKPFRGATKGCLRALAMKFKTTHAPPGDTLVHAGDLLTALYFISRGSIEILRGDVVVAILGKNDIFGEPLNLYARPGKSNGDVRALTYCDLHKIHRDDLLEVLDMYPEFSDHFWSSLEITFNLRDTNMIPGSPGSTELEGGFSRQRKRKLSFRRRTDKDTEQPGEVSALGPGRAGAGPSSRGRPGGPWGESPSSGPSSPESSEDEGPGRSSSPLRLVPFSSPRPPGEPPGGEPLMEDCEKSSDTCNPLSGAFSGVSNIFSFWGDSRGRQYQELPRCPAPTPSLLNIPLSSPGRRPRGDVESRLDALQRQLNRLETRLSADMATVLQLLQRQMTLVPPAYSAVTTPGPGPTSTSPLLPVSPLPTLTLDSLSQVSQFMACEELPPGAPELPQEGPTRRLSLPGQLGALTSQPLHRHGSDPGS

Row | IC50 [2] | melting point | IC50 [4] | SMILES | Ames [1] | IC50 [3] | C51 colon Tumor necrosis In vivo (grade, scale 0 to 5) [5] | IC50 [6]
1 | 3.48 to 3.75 nM | 119 °C | 800 nM | COc1cc(C(=O)/C(C)=C/c2ccc3c(ccn3CCO)c2)cc(OC)c1OC [Example 1, E-2-Methyl-3-[1-(2-hydroxyethyl)indol-5-yl]-1-(3,4,5-trimethoxyphenyl)propenone] | negative | 0.97 to 3.29 nM |  | 
2 | 1.23 to 1.62 nM | 83 °C | 600 nM | COc1cc(C(=O)/C(C)=C/c2ccc3c(ccn3CCO)c2)cc2c1OCO2 [Example 2, E-2-Methyl-3-[1-(2-hydroxyethyl)indol-5-yl]-1-(3-methoxy-4,5-methylenedioxyphenyl)propenone] | negative | 0.22 to 0.61 nM | 5 (considerable, >75%) | > 30000 nM
3 |  | 112 °C | 830 nM | COc1ccc(OC)c(C(=O)/C(C)=C/c2ccc3c(ccn3CCO)c2)c1 [Example 3, E-2-Methyl-3-[1-(2-hydroxyethyl)-1-H-indol-5-yl]-1-(2,5-dimethoxyphenyl)propenone] | negative |  |  | 
